Where two headings read alike, the source gives them in different places.
System: patients with advanced solid tumors harboring FGFR2 and/or FGFR3 gene alterations
Description: The study was divided into two parts. […] The secondary objectives included antitumor activity in Part A, determination of pharmacokinetics and pharmacodynamics.
Dose level 1 was started at 5 mg oral daily, and patients were escalated on study to 50 mg daily. On the basis of ongoing efficacy, toxicity, and pharmacokinetic analysis, a planned amendment added additional cohorts up to 80 mg orally daily to define the MTD/RP2D. […] One cycle was 28 days of continuous dosing. Intrapatient dose escalation after safely tolerating two cycles was allowed if per protocol criteria were met. Patients continued therapy until evidence of disease progression, intolerance or unacceptable toxicity, withdrawal of consent, investigator decision, sponsor decision, or death.
Patients were evaluated with medical history, physical examinations, and clinical laboratory on days 1, 8, 15, and 22 of cycle 1; days 1 and 15 from cycle 2 through cycle 5; and day 1 of each subsequent cycle. […] Except for hyperphosphatemia, adverse events (AE) were graded according to the NCI-CTCAE (Common Terminology Criteria for Adverse Events) Version 5.0 at each study visit and for approximately 30 days following end of treatment.
The primary endpoints for the overall study, included: the incidence of DLTs, incidence of AEs, treatment-emergent AEs (TEAE), and treatment-related AEs (TRAE).

SMILES: C=CC(=O)N1C[C@@H](n2nc(C#Cc3c(F)cc4c(ncn4C4CC4)c3F)c(C(N)=O)c2NC)C[C@@H]1COC [KIN-3248]
- Patients with treatment reduced and discontinued because of TEAEs (7 patients): 13.0%
- Patients with treatment-related grade 3 events (11 of 54 patients): 20.4%
- Patients with treatment interrupted because of TEAEs (16 patients): 29.6%
- Patients with TEAE grade ≥3 events (25 of 54 patients): 46.3%
- Patients with TRAEs of any grade (47 of 54 patients): 87.0%
- Patients with TEAEs of any grade (53 of 54 patients): 98.1%
- TRAE of any grade: diarrhea (54 patients): 25.9%
- TRAE of any grade: hyperphosphatemia (54 patients): 64.8%
- TRAE of any grade: stomatitis (54 patients): 16.7%
- Number of dose-limiting toxicities (DLT) (54 patients, 5-50 mg orally daily, DLT at dose level 1 (5 mg): grade 3 drug hypersensitivity reaction): one
- Patient with any TEAE, n (%) (CTCAE (V5) Grade 1–2, N = 54): 28 (51.9%)
- TEAE Alanine aminotransferase increased, n (%) (CTCAE (V5) Grade 1–2, N = 54): 5 (9.3%)
- TEAE Aspartate aminotransferase increased, n (%) (CTCAE (V5) Grade 1–2, N = 54): 4 (7.4%)
- TEAE Blood and lymphatic system disorders, n (%) (CTCAE (V5) Grade 1–2, N = 54): 9 (16.7%)
- TEAE Blood creatinine increased, n (%) (CTCAE (V5) Grade 1–2, N = 54): 7 (13.0%)
- TEAE Constipation, n (%) (CTCAE (V5) Grade 1–2, N = 54): 12 (22.2%)
- TEAE Decreased appetite, n (%) (CTCAE (V5) Grade 1–2, N = 54): 6 (11.1%)
- TEAE Diarrhea, n (%) (CTCAE (V5) Grade 1–2, N = 54): 17 (31.5%)
- TEAE Dry mouth, n (%) (CTCAE (V5) Grade 1–2, N = 54): 8 (14.8%)
- TEAE Eye disorders, n (%) (CTCAE (V5) Grade 1–2, N = 54): 12 (22.2%)
- TEAE Fatigue, n (%) (CTCAE (V5) Grade 1–2, N = 54): 11 (20.4%)
- TEAE Gastrointestinal disorders, n (%) (CTCAE (V5) Grade 1–2, N = 54): 35 (64.8%)
- TEAE General disorders and administration site conditions, n (%) (CTCAE (V5) Grade 1–2, N = 54): 18 (33.3%)
- TEAE Hypercalcemia, n (%) (CTCAE (V5) Grade 1–2, N = 54): 5 (9.3%)
- TEAE Hyperphosphatemia, n (%) (CTCAE (V5) Grade 1–2, N = 54): 29 (53.7%)
- TEAE Infections and infestations, n (%) (CTCAE (V5) Grade 1–2, N = 54): 4 (7.4%)
- TEAE Investigations, n (%) (CTCAE (V5) Grade 1–2, N = 54): 19 (35.2%)
- TEAE Metabolism and nutrition disorders, n (%) (CTCAE (V5) Grade 1–2, N = 54): 30 (55.6%)
- TEAE Musculoskeletal and connective tissue disorders, n (%) (CTCAE (V5) Grade 1–2, N = 54): 14 (25.9%)
- TEAE Nausea, n (%) (CTCAE (V5) Grade 1–2, N = 54): 6 (11.1%)
- TEAE Nervous system disorders, n (%) (CTCAE (V5) Grade 1–2, N = 54): 7 (13.0%)
- TEAE Psychiatric disorders, n (%) (CTCAE (V5) Grade 1–2, N = 54): 7 (13.0%)
- TEAE Respiratory, thoracic, and mediastinal disorders, n (%) (CTCAE (V5) Grade 1–2, N = 54): 7 (13.0%)
- TEAE Skin and subcutaneous tissue disorders, n (%) (CTCAE (V5) Grade 1–2, N = 54): 14 (25.9%)
- TEAE Stomatitis, n (%) (CTCAE (V5) Grade 1–2, N = 54): 11 (20.4%)
- TEAE Vascular disorders, n (%) (CTCAE (V5) Grade 1–2, N = 54): 5 (9.3%)
- Patient with any TEAE, n (%) (CTCAE (V5) Grade 3, N = 54): 18 (33.3%)
- TEAE Alanine aminotransferase increased, n (%) (CTCAE (V5) Grade 3, N = 54): 1 (1.9%)
- TEAE Anemia, n (%) (CTCAE (V5) Grade 3, N = 54): 2 (3.7%)
- TEAE Aspartate aminotransferase increased, n (%) (CTCAE (V5) Grade 3, N = 54): 2 (3.7%)
- TEAE Blood and lymphatic system disorders, n (%) (CTCAE (V5) Grade 3, N = 54): 3 (5.6%)
- TEAE Blood creatinine increased, n (%) (CTCAE (V5) Grade 3, N = 54): 0
- TEAE Constipation, n (%) (CTCAE (V5) Grade 3, N = 54): 0
- TEAE Decreased appetite, n (%) (CTCAE (V5) Grade 3, N = 54): 0
- TEAE Diarrhea, n (%) (CTCAE (V5) Grade 3, N = 54): 0
- TEAE Dry mouth, n (%) (CTCAE (V5) Grade 3, N = 54): 0
- TEAE Eye disorders, n (%) (CTCAE (V5) Grade 3, N = 54): 0
- TEAE Fatigue, n (%) (CTCAE (V5) Grade 3, N = 54): 0
- TEAE Gastrointestinal disorders, n (%) (CTCAE (V5) Grade 3, N = 54): 5 (9.3%)
- TEAE General disorders and administration site conditions, n (%) (CTCAE (V5) Grade 3, N = 54): 0
- TEAE Hypercalcemia, n (%) (CTCAE (V5) Grade 3, N = 54): 1 (1.9%)
- TEAE Hyperphosphatemia, n (%) (CTCAE (V5) Grade 3, N = 54): 8 (14.8%)
- TEAE Infections and infestations, n (%) (CTCAE (V5) Grade 3, N = 54): 4 (7.4%)
- TEAE Investigations, n (%) (CTCAE (V5) Grade 3, N = 54): 2 (3.7%)
- TEAE Metabolism and nutrition disorders, n (%) (CTCAE (V5) Grade 3, N = 54): 10 (18.5%)
- TEAE Musculoskeletal and connective tissue disorders, n (%) (CTCAE (V5) Grade 3, N = 54): 1 (1.9%)
- TEAE Nausea, n (%) (CTCAE (V5) Grade 3, N = 54): 0
- TEAE Nervous system disorders, n (%) (CTCAE (V5) Grade 3, N = 54): 2 (3.7%)
- TEAE Psychiatric disorders, n (%) (CTCAE (V5) Grade 3, N = 54): 0
- TEAE Respiratory, thoracic, and mediastinal disorders, n (%) (CTCAE (V5) Grade 3, N = 54): 1 (1.9%)

From publication PMC11060137, “A Phase I Study of KIN-3248, an Irreversible Small-molecule Pan-FGFR Inhibitor, in Patients with Advanced FGFR2/3-driven Solid Tumors” (Cancer Research Communications, 2024)
